Laboratory results published in paper PMC9395490, “An open-label, crossover study to compare different formulations and evaluate effect of food on pharmacokinetics of pimitespib in patients with advanced solid tumors” (Investigational New Drugs, 2022).
Like-named read-outs stand apart in the source and are kept apart here.

Columns and labels:
[1] = test system: patients with advanced solid tumors; parameters: method as in PMID 30679388; details: phase I; cited from earlier work
[2] = test system: patients with advanced GIST; parameters: method as in doi:10.1200/JCO.2021.39.15_suppl.11524; details: phase III, cited from earlier work
[3] = test system: patients with advanced GIST; parameters: method as in PMID 31536852; details: phase II, advanced GIST failed or intolerant to imatinib, sunitinib, regorafenib; cited from earlier work
[4] = PK evaluation period, Cohort 2: food effect, single dose of Formulation A under fed vs fasting conditions (crossover); type: in vivo, patients with advanced solid tumors
Experimental: For fasting conditions, patients were required to fast at least 10 h before dosing and at least 4 h after dosing and abstain from drinking water 1 h before and after administration, excluding the water consumed at the time of dosing. For fed conditions, patients were required to fast for at least 10 h before dosing and at least 4 h after dosing (except for the scheduled study meal) and abstain from drinking for 1 h before and after administration, except for drinking water. The study drug was administered within 30 min of completing the meal. The study meal was a high-fat (approximately 50% of the total caloric content of the meal) and high-calorie (572–715 kcal) meal considering the weight ratio of Japanese to American individuals. […]
For the analyses related to Cohort 2, the ANOVA model included treatment (fasting and fed conditions), treatment period, and treatment sequence as fixed effects, and patients nested within treatment sequence as a random effect. The GMR and 90% CI of the fed condition to the fasting condition were calculated.

[5] = PK evaluation period, Cohort 1: single dose of Formulation A vs Formulation B under fasting conditions (crossover); type: in vivo, patients with advanced solid tumors
Experimental: This clinical, pharmacological, multicenter study was conducted in Japan and consisted of two cohorts (Cohorts 1 and 2) and two periods. The patients were first assigned to the pharmacokinetic evaluation period to investigate PK parameters of each formulation (Cohort 1) or the effect of food (Cohort 2), and then to the consecutive administration period (Supplementary Fig. 1).
In both cohorts, a randomized cross-over design was used.
For fasting conditions, patients were required to fast at least 10 h before dosing and at least 4 h after dosing and abstain from drinking water 1 h before and after administration, excluding the water consumed at the time of dosing. For fed conditions, patients were required to fast for at least 10 h before dosing and at least 4 h after dosing (except for the scheduled study meal) and abstain from drinking for 1 h before and after administration, except for drinking water. The study drug was administered within 30 min of completing the meal. The study meal was a high-fat (approximately 50% of the total caloric content of the meal) and high-calorie (572–715 kcal) meal considering the weight ratio of Japanese to American individuals. The meal’s nutritional value was adjusted based on the body weight of Japanese patients according to the US FDA standard guidance. It was recommended that study drug dosing be done with 100–200 (usually 150) mL of water.
Patients underwent hematologic, coagulation, biochemical laboratory examinations, urinalysis, electrocardiogram, ophthalmologic examination, and vital sign and body weight assessments. Blood collection occurred before pimitespib administration and at 0.5, 1, 2, 4, 6, 8, 10, 24, and 48 h after administration at the first and second doses.
For Cohort 1 analyses, the values of the natural log-transformed PK parameters (Cmax, AUClast, AUCinf, terminal elimination rate constant [λz], and mean residence time) were analyzed using analysis of variance (ANOVA), using Phoenix® WinNonlin® Ver. 8.1. […] The time to maximum plasma concentration (tmax) was not transformed and was analyzed using Wilcoxon’s signed-rank test, conducted using EXSUS version 10.0.3. The significance level was set at 5%.

## CCc1cc(C(N)=O)ccc1-n1nc(C(C)C)c2c(-n3cnc(-c4cnn(C)c4)c3)ccnc21 [pimitespib, Pimitespib]
[1]
  patients with GIST achieving a partial response: one
  patients with non-small cell lung cancer achieving a partial response: two
[2]; advanced GIST refractory or intolerant to imatinib, sunitinib, regorafenib
  median PFS: 2.8 months
[2]; pimitespib vs placebo
  hazard ratio (HR) for PFS: 0.51
[3]
  median PFS: 4.4 months
[4]
  AUC under fed conditions, fold higher than under fasting conditions: ~1.6 fold
  Cmax under fed conditions, fold higher than under fasting conditions: approximately 1.9 fold
[5]
  inter-subject CV% for AUCinf: 54.4%
  inter-subject CV% for AUClast: 52.6%
  inter-subject CV% for Cmax: 63.8%
  intra-subject CV% for AUCinf: 24.9%
  intra-subject CV% for AUClast: 24.4%
  intra-subject CV% for Cmax: 28.5%
